biological target: T1, full length human recombinant glucocorticoid receptor (Homo sapiens, UniProt P04150); assay: Glucocorticoid Receptor Binding Assay (Glucocorticoid Receptor Competitor Assay far red kit, fluorescence polarization); conditions: competition with fluorescent GR ligand Fluormone GS Far Red, 3 hours at 22° C., pH 7.4; Ki calculated from IC50 by Cheng-Prusoff
T1 construct: It contains some partially purified full length human recombinant glucocorticoid receptor; purchased Panvera/Invitrogen PV4302
T1 sequence (P04150 1-777): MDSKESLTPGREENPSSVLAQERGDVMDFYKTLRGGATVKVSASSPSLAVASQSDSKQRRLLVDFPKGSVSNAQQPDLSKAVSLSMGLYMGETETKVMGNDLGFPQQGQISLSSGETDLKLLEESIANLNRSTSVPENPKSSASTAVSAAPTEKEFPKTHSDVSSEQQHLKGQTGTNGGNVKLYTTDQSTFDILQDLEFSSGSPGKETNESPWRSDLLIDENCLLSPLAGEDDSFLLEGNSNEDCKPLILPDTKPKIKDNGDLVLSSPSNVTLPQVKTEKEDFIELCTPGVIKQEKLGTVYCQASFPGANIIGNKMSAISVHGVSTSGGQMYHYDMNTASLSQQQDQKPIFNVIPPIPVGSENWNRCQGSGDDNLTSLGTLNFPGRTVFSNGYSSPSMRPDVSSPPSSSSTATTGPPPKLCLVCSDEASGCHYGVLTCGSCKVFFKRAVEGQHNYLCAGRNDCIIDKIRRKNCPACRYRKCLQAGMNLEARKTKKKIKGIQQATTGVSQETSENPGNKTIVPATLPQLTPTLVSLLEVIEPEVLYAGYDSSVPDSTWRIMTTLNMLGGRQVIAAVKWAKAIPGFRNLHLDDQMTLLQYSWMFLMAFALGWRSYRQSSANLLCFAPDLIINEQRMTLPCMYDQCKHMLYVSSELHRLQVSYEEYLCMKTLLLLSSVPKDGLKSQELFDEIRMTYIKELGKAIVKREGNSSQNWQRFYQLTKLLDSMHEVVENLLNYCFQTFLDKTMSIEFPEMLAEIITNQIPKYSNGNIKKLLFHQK
How it was run: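 Compounds in serial dilution (from intermediate 4.2% DMSO stock) displace Fluormone GS Far Red from full-length human recombinant GR with stabilizing peptide, pH 7.4, incubated 3 hours at 22° C dark. Polarized fluorescence (610–660 nm) gives IC50 via sigmoidal fit, converted to Ki by Cheng-Prusoff.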

Row | Ki [nM] | Structure (SMILES)
1 | 23.1 | C[C@H](c1ccc(Oc2ccc(C(=O)O)c(Cl)c2)cc1Cl)[C@](O)(c1ccc2c(c1)OCO2)C(F)(F)F (relative stereo) [Example 103, 4-[4-(2-Benzo[1,3]dioxol-5-yl-3,3,3-trifluoro-2-hydroxy-1-methyl-propyl)-3-chloro-phenoxy]-2-chloro-benzoic acid]
2 | 5.2 | C[C@H](c1ccc(Oc2cnc(C(=O)O)cn2)cc1Cl)[C@@](O)(c1ccc2c(c1)n(C)c(=O)n2C)C(F)(F)F (relative stereo) [Example 106, 5-{3-Chloro-4-[2-(1,3-dimethyl-2-oxo-2,3-dihydro-1H-benzoimidazol-5-yl)-3,3,3-trifluoro-2-hydroxy-1-methyl-propyl]-phenoxy}-pyrazine-2-carboxylic acid]
3 | 354 | C[C@H](c1ccc(-c2ccc(C(=O)O)c(F)c2)cc1Cl)[C@@](O)(c1ccc2[nH]c(=O)[nH]c2c1)C(F)(F)F (relative stereo) [Example 114, 3′-Chloro-3-fluoro-4′-[3,3,3-trifluoro-2-hydroxy-1-methyl-2-(2-oxo-2,3-dihydro-1H-benzoimidazol-5-yl)-propyl]-biphenyl-4-carboxylic acid]
4 | 1 | C[C@H](c1ccc(Br)cc1Cl)[C@@](O)(c1ccc2oc(=O)n(C)c2c1)C(F)(F)F (relative stereo) [Example 116, 5-[2-(4-Bromo-2-chloro-phenyl)-1-hydroxy-1-trifluoromethyl-propyl]-3-methyl-3H-benzooxazol-2-one]
5 | 2.2 | COC(=O)c1ccc(-c2ccc([C@@H](C)[C@@](O)(c3ccc4oc(=O)n(C)c4c3)C(F)(F)F)c(Cl)c2)cc1F (relative stereo) [Example 117, 3′-Chloro-3-fluoro-4′-[3,3,3-trifluoro-2-hydroxy-1-methyl-2-(3-methyl-2-oxo-2,3-dihydro-benzooxazol-5-yl)-propyl]-biphenyl-4-carboxylic acid methyl ester]
6 | 1.6 | CCOC(=O)c1cc(-c2ccc([C@H](C)[C@](O)(c3ccc4oc(=O)n(C)c4c3)C(F)(F)F)c(Cl)c2)ccc1F (relative stereo) [Example 121, 3′-Chloro-4-fluoro-4′-[3,3,3-trifluoro-2-hydroxy-1-methyl-2-(3-methyl-2-oxo-2,3-dihydro-benzooxazol-5-yl)-propyl]-biphenyl-3-carboxylic acid ethyl ester]
7 | 0.5 | C[C@H](c1ccc(-c2ccc(F)c(C(=O)O)c2)cc1Cl)[C@@](O)(c1ccc2oc(=O)n(C)c2c1)C(F)(F)F (relative stereo) [Example 122, 3′-Chloro-4-fluoro-4′-[3,3,3-trifluoro-2-hydroxy-1-methyl-2-(3-methyl-2-oxo-2,3-dihydro-benzooxazol-5-yl)-propyl]-biphenyl-3-carboxylic acid]
8 | 1.1 | COC(=O)c1ccc(-c2ccc([C@@H](C)[C@@](O)(c3ccc4oc(=O)n(C)c4c3)C(F)(F)F)c(Cl)c2)cc1Cl (relative stereo) [Example 123, 3,3′-Dichloro-4′-[3,3,3-trifluoro-2-hydroxy-1-methyl-2-(3-methyl-2-oxo-2,3-dihydro-benzooxazol-5-yl)-propyl]-biphenyl-4-carboxylic acid methyl ester]
9 | 0.3 | C[C@H](c1ccc(-c2ccc(C(=O)O)c(Cl)c2)cc1Cl)[C@@](O)(c1ccc2oc(=O)n(C)c2c1)C(F)(F)F (relative stereo) [Example 124, 3,3′-Dichloro-4′-[3,3,3-trifluoro-2-hydroxy-1-methyl-2-(3-methyl-2-oxo-2,3-dihydro-benzooxazol-5-yl)-propyl]-biphenyl-4-carboxylic acid]
10 | 1 | COC(=O)c1ccc(-c2ccc([C@@H](C)[C@@](O)(c3ccc4oc(=O)n(C)c4c3)C(F)(F)F)c(Cl)c2)c(F)c1 (relative stereo) [Example 125, 3′-Chloro-2-fluoro-4′-[3,3,3-trifluoro-2-hydroxy-1-methyl-2-(3-methyl-2-oxo-2,3-dihydro-benzooxazol-5-yl)-propyl]-biphenyl-4-carboxylic acid methyl ester]
11 | 0.5 | C[C@H](c1ccc(-c2ccc(C(=O)O)cc2F)cc1Cl)[C@@](O)(c1ccc2oc(=O)n(C)c2c1)C(F)(F)F (relative stereo) [Example 126, 3′-Chloro-2-fluoro-4′-[3,3,3-trifluoro-2-hydroxy-1-methyl-2-(3-methyl-2-oxo-2,3-dihydro-benzooxazol-5-yl)-propyl]-biphenyl-4-carboxylic acid]
12 | 1.7 | C[C@H](c1ccc(-c2ccc(C(=O)O)cn2)cc1Cl)[C@@](O)(c1ccc2oc(=O)n(C)c2c1)C(F)(F)F (relative stereo) [Example 128, 6-{3-Chloro-4-[3,3,3-trifluoro-2-hydroxy-1-methyl-2-(3-methyl-2-oxo-2,3-dihydro-benzooxazol-5-yl)-propyl]-phenyl}-nicotinic acid]
13 | 1.1 | CCOC(=O)COc1ccc(-c2ccc([C@@H](C)[C@@](O)(c3ccc4oc(=O)n(C)c4c3)C(F)(F)F)c(Cl)c2)cc1 (relative stereo) [Example 129, {3′-Chloro-4′-[3,3,3-trifluoro-2-hydroxy-1-methyl-2-(3-methyl-2-oxo-2,3-dihydro-benzooxazol-5-yl)-propyl]-biphenyl-4-yloxy}-acetic acid ethyl ester]
14 | 1.2 | COC(=O)c1ccc(-c2ccc([C@@H](C)[C@@](O)(c3ccc4oc(=O)n(C)c4c3)C(F)(F)F)c(Cl)c2)cc1OC (relative stereo) [Example 131, 3′-Chloro-3-methoxy-4′-[3,3,3-trifluoro-2-hydroxy-1-methyl-2-(3-methyl-2-oxo-2,3-dihydro-benzooxazol-5-yl)-propyl]-biphenyl-4-carboxylic acid methyl ester]
15 | 1.6 | C[C@H](c1ccc(Br)cc1Cl)[C@@](O)(c1ccc2c(c1)oc(=O)n2C)C(F)(F)F (relative stereo) [Example 133, 6-[2-(4-Bromo-2-chloro-phenyl)-1-hydroxy-1-trifluoromethyl-propyl]-3-methyl-3H-benzooxazol-2-one]
16 | 109 | C[C@H](c1ccc(-c2ccc(C(=O)O)c(F)c2)cc1Cl)[C@@](O)(c1ccc2c(c1)oc(=O)n2C)C(F)(F)F (relative stereo) [Example 134, 3′-Chloro-3-fluoro-4′-[3,3,3-trifluoro-2-hydroxy-1-methyl-2-(3-methyl-2-oxo-2,3-dihydro-benzooxazol-6-yl)-propyl]-biphenyl-4-carboxylic acid]
17 | 154 | C[C@H](c1ccc(-c2ccc(C(=O)O)c(Cl)c2)cc1Cl)[C@@](O)(c1ccc2c(c1)oc(=O)n2C)C(F)(F)F (relative stereo) [Example 135, 3,3′-Dichloro-4′-[3,3,3-trifluoro-2-hydroxy-1-methyl-2-(3-methyl-2-oxo-2,3-dihydro-benzooxazol-6-yl)-propyl]-biphenyl-4-carboxylic acid]
18 | 1.3 | COC(=O)c1ccc(-c2ccc([C@H](C)[C@](O)(c3cc4c(cc3F)OCC(=O)N4C)C(F)(F)F)c(Cl)c2)cc1F (relative stereo) [Example 136, 3′-Chloro-3-fluoro-4′-[3,3,3-trifluoro-2-(7-fluoro-4-methyl-3-oxo-3,4-dihydro-2H-benzo[1,4]oxazin-6-yl)-2-hydroxy-1-methyl-propyl]-biphenyl-4-carboxylic acid methyl ester]
